# Test results from patent publication US20150272939A1, “Identification of Small Molecule Inhibitors of Jumonji AT-Rich Interactive Domain 1A (JARID1A) and 1B (JARID1B) Histone Demethylase” (Yale University, priority 2012, published 2015).
# “And” between values parts separate entries of the source, which are not always exact repeats. Equal entries are not always repeated.
# Legend:
# JARID1A = target: T1, JARID1A (Homo sapiens, UniProt P29375); experiment: FLAG-JARID1A histone demethylase assay with AlphaScreen detection (HTS and dose response); assay type: biochemical; conditions: for IC50: dose response, 50 μM Fe (II), read-out: IC50 against JARID1A
# T1 construct: the high-throughput screen of the invention utilizes full length JARID1A or JARID1B; FLAG (N); made in house; host or cells: Sf21 insect cells (baculovirus)
# Procedure: (§1) Histone demethylase assays were performed in 384 well white plates (Corning 3574). Demethylase buffer conditions for FLAG-JARID1B were as follows: 10 μM α-KG, 100 μM ascorbate, 50 μM (NH4)2Fe(SO4)2, 50 mM Hepes (pH 7.5), 0.01% (v/v) Tween 20, and 0.1% (w/v) bovine serum albumin. The demethylase reactions included 64 nM bio-H3K4me3 peptide alone or in the presence of 4 nM FLAG-JARID1B enzyme in a 10 μl reaction at 25° C. for 30 minutes. As a positive control, 64 nM bio-H3K4me2 peptide was assayed in the absence of enzyme. Assay conditions for FLAG-JARID1C is the same as for FLAG-JARID1B except that 20 nM enzyme was used. For FLAG-JARID1A, the demethylase buffer was similar to FLAG-JARID1B, except that 125 μM α-KG and 13 nM FLAG-JARID1A enzyme were used. The His-FLAG-UTX and FLAG-JMJD3 demethylase assays also employed the same buffer conditions as for FLAG-JARID1B, with 64 nM bio-H3K27me3 peptide assayed with or without 25 nM His-FLAG-UTX enzyme or 50 nM FLAG-JMJD3 (BPS Bioscience, 50115), and 64 nM bio-H3K27me2 peptide as a positive control. JARID1A, JARID1C, UTX, and JMJD3 histone demethylase assays proceeded at 37° C. for 1 hour.
# (§2) The AlphaScreen General IgG (Protein A) detection kit was obtained from PerkinElmer. Demethylated H3K4 products were detected using AlphaScreen antibody/bead mix containing 7.5 mM ethylenediaminetetraacetic acid (EDTA) and 0.15 μg/ml anti-H3K4me1 antibody in a final volume of 20 μl. For detection of demethylated H3K27 products, the AlphaScreen antibody/bead mix containing 7.5 mM EDTA and 0.15 μg/ml anti-H3K27me2 antibody in a final volume of 20 μl. The luminescence signal was measured using the Envision (PerkinElmer) or Pherastar (BMG Labtech) Platereaders.
# FLAG-JARID1A was screened against 9,600 compounds. These compound libraries were from the Yale Center for Molecular Discovery. The libraries screened include the MicroSource Gen-Plus, MicroSource Pure Natural Products, NIH Clinical Collection, Enzo Epigenetics, and ChemBridge MW-Set libraries. Compounds dissolved in dimethyl sulfoxide (DMSO) were pintooled into a 384 well plate containing bio-H3K4me3 peptide in demethylase buffer to a final concentration of 20 μM. The reactions were initiated by the addition of 13 nM FLAG-JARID1A, and detected as described above. To eliminate the false positive hits, a counterscreen was performed against bio-H3K4me2 in the absence of enzyme.
# JARID1B = target: T2, JARID1B (Homo sapiens, UniProt Q9UGL1); experiment: FLAG-JARID1B histone demethylase assay with AlphaScreen detection (HTS and dose response); assay type: biochemical; conditions: for Assay − Artifact Signal (percent): assay signal minus artifact signal; for Assay Signal (percent): validation of HTS actives, effect of compound in JARID1B AlphaScreen assay;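 on Assay Signal (percent): compound tested at 20 µM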;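 on Assay − Artifact Signal (percent): compound tested at 20 µM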;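 on all read-outs here: FLAG-tagged JARID1B at 4 nM acting on a biotinylated H3K4me3 peptide, demethylation read by AlphaScreen luminescence, with hits checked against bio-H3K4me2 without enzyme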
# T2 construct: The FLAG tagged full length JARID1B enzyme was expressed in Sf21 insect cells using FLAG-JARID1B baculoviruses; FLAG (N); made in house; host or cells: Sf21 insect cells (baculovirus)
# UTX = target: T3, UTX (Homo sapiens, UniProt O15550); experiment: His-FLAG-UTX H3K27me3 demethylase assay with AlphaScreen detection; assay type: biochemical; conditions: compound 10 μM, 64 nM bio-H3K27me3 peptide
# T3 construct: His (N); FLAG (N); made in house; host or cells: Sf21 insect cells (baculovirus)
# Procedure: as §1, with “The His-FLAG-UTX and FLAG-JMJD3 demethylase assays also employed the same buffer conditions as for FLAG-JARID1B, with 64 nM bio-H3K27me3 peptide assayed with or without 25 nM His-FLAG-UTX enzyme or 50 nM FLAG-JMJD3 (BPS Bioscience, 50115), and 64 nM bio-H3K27me2 peptide as a positive control. JARID1A, JARID1C, UTX, and JMJD3 histone demethylase assays proceeded at 37° C. for 1 hour.” left out
# as §2, with “For detection of demethylated H3K27 products, the AlphaScreen antibody/bead mix containing 7.5 mM EDTA and 0.15 μg/ml anti-H3K27me2 antibody in a final volume of 20 μl.” left out
# JARID1C = target: T4, JARID1C (Homo sapiens, UniProt P41229); experiment: FLAG-JARID1C histone demethylase assay with AlphaScreen detection; assay type: biochemical; conditions: compound 10 μM, 64 nM bio-H3K4me3 peptide
# T4 construct: FLAG (N); made in house; host or cells: Sf21 insect cells (baculovirus)
# Procedure: as §1, §2
# [1] = AlphaScreen counterscreen against bio-H3K4me2 peptide in the absence of enzyme (artifact signal); conditions: effect of the compound when incubated with bio-H3K4me2 peptide (counterscreen, no enzyme);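 further: counterscreen run without enzyme against bio-H3K4me2 peptide to remove false positive hits from the JARID1 demethylase AlphaScreen screen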
# [2] = compound 10 μM, 64 nM bio-H3K4me3 peptide
# [3] = high-throughput screen, compound 20 μM, standard demethylase conditions (10 μM α-KG, 50 μM Fe (II))
# T1 sequence (P29375 whole entry): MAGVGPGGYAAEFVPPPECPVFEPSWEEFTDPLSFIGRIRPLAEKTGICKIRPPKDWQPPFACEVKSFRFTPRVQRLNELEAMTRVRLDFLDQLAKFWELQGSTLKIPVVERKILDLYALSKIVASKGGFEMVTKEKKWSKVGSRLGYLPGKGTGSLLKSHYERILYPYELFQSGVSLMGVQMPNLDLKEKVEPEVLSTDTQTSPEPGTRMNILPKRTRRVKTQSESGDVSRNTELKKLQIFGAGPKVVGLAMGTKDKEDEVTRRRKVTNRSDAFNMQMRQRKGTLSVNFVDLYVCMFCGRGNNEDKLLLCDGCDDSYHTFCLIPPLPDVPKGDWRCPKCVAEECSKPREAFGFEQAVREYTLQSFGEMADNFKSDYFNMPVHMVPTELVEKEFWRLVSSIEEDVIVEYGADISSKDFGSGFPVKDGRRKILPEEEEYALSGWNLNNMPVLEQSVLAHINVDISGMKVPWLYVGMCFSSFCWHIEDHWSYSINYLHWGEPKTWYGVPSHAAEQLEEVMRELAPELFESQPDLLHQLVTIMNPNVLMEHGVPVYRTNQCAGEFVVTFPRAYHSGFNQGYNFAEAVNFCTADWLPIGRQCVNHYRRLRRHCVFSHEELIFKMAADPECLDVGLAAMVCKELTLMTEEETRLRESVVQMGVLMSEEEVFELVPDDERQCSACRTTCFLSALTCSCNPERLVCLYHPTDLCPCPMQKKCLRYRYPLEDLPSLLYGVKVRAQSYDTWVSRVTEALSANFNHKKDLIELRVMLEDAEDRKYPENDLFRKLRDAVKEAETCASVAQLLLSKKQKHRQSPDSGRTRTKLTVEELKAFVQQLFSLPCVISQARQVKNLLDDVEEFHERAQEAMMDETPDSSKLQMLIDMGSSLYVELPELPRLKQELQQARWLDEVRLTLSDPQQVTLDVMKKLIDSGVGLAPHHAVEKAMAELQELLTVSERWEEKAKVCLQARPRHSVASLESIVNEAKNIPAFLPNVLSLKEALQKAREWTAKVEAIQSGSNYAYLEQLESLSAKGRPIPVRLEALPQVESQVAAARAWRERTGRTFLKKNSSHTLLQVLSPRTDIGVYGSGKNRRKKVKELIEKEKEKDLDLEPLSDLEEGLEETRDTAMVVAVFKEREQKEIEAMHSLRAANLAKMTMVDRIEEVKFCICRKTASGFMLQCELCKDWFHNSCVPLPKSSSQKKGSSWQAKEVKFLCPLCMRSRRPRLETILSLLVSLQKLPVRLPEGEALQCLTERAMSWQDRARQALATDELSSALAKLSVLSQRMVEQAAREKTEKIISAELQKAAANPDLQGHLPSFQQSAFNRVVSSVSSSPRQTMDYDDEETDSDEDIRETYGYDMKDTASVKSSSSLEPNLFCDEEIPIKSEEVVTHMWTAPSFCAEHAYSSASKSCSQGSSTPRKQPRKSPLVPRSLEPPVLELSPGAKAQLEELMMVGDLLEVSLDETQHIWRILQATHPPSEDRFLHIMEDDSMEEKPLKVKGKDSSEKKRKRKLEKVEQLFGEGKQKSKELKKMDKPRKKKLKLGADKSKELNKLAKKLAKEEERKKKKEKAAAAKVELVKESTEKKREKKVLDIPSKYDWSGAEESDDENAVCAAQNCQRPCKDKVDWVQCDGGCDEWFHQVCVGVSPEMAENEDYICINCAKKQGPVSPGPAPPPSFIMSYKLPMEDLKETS
# T2 sequence (Q9UGL1 whole entry): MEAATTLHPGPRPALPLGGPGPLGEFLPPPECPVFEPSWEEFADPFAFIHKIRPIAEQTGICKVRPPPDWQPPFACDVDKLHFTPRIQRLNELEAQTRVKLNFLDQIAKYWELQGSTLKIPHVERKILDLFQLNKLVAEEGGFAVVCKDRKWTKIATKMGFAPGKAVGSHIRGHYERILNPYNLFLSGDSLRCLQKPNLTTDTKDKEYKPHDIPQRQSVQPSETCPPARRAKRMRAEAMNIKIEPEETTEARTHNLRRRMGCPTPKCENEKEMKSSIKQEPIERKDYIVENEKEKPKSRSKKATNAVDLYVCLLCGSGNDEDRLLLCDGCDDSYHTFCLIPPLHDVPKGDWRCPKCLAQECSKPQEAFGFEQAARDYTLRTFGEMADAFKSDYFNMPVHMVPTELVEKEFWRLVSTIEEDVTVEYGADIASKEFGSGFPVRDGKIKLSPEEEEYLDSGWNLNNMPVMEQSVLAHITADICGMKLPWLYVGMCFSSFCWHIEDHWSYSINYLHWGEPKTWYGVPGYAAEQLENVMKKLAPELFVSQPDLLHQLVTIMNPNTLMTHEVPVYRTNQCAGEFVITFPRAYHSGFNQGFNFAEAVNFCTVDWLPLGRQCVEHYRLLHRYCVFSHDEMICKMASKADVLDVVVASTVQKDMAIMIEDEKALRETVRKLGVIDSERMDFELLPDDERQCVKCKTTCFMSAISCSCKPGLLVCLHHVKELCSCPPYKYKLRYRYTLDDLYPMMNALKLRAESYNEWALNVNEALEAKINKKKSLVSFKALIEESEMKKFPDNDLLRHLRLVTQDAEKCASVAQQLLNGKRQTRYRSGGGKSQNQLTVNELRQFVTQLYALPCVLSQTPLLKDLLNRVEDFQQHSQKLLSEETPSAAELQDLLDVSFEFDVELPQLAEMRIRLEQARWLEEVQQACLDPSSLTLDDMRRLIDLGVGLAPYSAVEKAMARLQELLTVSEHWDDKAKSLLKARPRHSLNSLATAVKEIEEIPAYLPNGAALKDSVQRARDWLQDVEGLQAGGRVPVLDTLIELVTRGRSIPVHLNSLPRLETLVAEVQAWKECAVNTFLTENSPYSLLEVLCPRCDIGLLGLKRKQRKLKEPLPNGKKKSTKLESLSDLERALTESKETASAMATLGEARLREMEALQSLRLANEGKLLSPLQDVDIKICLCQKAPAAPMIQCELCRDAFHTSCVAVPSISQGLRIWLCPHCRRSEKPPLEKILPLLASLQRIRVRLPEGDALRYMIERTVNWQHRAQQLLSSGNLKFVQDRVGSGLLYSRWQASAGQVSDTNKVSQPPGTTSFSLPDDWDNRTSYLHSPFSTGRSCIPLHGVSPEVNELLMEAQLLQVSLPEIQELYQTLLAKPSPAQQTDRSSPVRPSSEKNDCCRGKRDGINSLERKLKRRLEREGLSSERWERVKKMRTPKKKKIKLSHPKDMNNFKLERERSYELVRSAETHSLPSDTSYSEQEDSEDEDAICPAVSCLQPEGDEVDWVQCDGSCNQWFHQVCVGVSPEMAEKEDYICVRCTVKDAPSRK
# T4 sequence (P41229 whole entry): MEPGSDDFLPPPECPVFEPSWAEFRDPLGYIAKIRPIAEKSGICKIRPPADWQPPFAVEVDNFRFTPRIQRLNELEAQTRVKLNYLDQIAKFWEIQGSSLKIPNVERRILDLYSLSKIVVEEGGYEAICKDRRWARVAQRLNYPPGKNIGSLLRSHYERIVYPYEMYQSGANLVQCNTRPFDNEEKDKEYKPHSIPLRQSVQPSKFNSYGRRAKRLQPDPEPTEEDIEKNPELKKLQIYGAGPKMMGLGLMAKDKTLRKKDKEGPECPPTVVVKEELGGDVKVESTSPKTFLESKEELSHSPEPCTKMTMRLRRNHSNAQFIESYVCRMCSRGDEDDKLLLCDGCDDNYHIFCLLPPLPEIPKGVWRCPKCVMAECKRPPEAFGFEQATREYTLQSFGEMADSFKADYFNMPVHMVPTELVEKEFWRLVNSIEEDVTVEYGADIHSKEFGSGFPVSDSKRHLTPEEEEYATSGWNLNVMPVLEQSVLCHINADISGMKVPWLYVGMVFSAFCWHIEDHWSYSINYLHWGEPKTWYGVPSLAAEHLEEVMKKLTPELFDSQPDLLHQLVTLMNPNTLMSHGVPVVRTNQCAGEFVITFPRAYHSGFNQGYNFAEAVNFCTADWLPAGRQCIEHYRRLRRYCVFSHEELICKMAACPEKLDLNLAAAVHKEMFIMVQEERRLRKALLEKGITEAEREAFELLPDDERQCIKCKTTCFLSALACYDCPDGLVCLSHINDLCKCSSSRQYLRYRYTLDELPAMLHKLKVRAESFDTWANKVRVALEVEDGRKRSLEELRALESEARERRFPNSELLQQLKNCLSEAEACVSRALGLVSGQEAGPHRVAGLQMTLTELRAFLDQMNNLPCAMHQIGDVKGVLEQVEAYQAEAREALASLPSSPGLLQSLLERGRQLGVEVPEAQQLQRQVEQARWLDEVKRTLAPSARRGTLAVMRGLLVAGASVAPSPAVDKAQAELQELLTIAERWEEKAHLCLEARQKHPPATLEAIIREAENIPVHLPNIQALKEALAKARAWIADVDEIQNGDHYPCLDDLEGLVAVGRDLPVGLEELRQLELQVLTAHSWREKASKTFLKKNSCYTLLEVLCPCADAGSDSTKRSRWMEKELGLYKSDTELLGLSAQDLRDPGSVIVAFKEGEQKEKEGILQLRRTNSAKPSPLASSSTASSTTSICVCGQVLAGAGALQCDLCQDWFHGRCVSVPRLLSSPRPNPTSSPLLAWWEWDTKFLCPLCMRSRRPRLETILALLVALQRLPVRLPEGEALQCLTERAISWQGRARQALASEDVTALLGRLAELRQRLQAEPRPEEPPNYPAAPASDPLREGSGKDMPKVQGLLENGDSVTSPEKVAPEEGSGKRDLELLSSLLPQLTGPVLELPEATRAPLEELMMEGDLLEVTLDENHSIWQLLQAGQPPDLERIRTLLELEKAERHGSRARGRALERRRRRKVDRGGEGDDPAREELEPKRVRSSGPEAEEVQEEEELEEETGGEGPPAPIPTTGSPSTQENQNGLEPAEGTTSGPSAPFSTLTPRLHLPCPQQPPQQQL
Molecule,IC50 (JARID1A),Artifact Signal (percent) [1] [%],Assay − Artifact Signal (percent) (JARID1B) [%],Assay Signal (percent) (JARID1B) [%],Inhibitory effect (percent) (JARID1B; [3]) [%],other results
"O=C(O)c1ccnc(C(=O)O)c1 [2,4-PDCA, 2,4-pyridinedicarboxylic acid monohydrate, reference compound]",4.1 µM and ~4 µM,–,–,–,–,JARID1A demethylase activity (JARID1A; [2]): inhibited; JARID1B demethylase activity (JARID1B; [2]): inhibited; UTX demethylase activity (UTX): did not inhibit; JARID1C demethylase activity (JARID1C): inhibited
Sc1ncnc2nc[nH]c12 [Mercaptopurine],~1 µM,–,–,–,–,–
C[C@](N)(Cc1ccc(O)c(O)c1)C(=O)O [Methyldopa],> 1 µM,–,–,–,–,–

# More lines, main results first:
IC50 (JARID1A),Artifact Signal (percent) [1] [%],Assay − Artifact Signal (percent) (JARID1B) [%],Assay Signal (percent) (JARID1B) [%],Inhibitory effect (percent) (JARID1B; [3]) [%],Molecule,other results
≤ 3 µM,−2.12,42.55,40.43,–,COc1ccc(OC)c(Nc2nc(=O)c3cccnc3s2)c1 [YU151897],"inhibition at 20 µM (JARID1B; high-throughput screen, compound 20 μM, standard demethylase conditions (10 μM α-KG, 50 μM Fe (II)), read-out: Inhibitory effect (percent)): 47.6%"
–,−3.21,36.96,33.76,60.48,"CALCEIN [YU034124, reference compound]",–
–,24.32,54.26,78.58,65.23,"CARMINIC ACID [YU155214, reference compound]",–
